Experimental data: patent publication US4031219A, “Bis-homophthalimides and salts thereof” (Boehringer Ingelheim GmbH, priority 1975, dated 1977)
In brackets after ≈: the same amount, converted by molar mass. Read-outs that look alike come from different tables or passages of the source.

Experiments:
[1] = test system: isolated electrically stimulated left auricle of the guinea pig; experiment: Effect on the effective refractory period of the isolated electrically stimulated left auricle of the guinea pig (maximum driving frequency); conditions: Cavia porcellus, Tyrode solution 37° C, mean change 5 and 10 minutes after addition, graphically determined from dose-response-curves, read-out: EC50 (concentration which reduces the maximum driving frequency by 50%)
Procedure: 1. Effect on the effective refractory period of the isolated electrically stimulated left auricle of the guinea pig
Guinea pigs of both sexes were killed by a blow on the neck. After opening the thorax, the heart was quickly removed and transferred to a Tyrode solution (37° C). The auricles were therein dissected, and only the left auricles were used. Electrical stimulation was performed by a Grass Stimulator, S4G, with square wave impulses of 1 millisecond duration and a stimulation voltage of 12 V. The auricles were suspended in Tyrode solution at 37° C containing NaCl: 136.8 mval/liter; KCl: 2.68 mval/liter; MgCl2 : 0.2625 mval/liter; NaH2 PO4 : 0.417 mval/liter; NaHCO3 : 11.9 mval/liter; CaCl2 : 1.8 mval/liter; glucose: 3 gm. The solution was continuously oxygenated with 98% O2 and 2% CO2. The isometric contractions were measured with a force-displacement transducer and recorded on a Grass-polygraph (P5).
The auricles were stimulated with 0.5 Hz. The maximum driving frequency was measured by increasing the stimulation rate every 10 seconds by 1 Hz. Measurements were performed three times every 5 minutes before and 5 and 10 minutes after the addition of the test compound. During the rest periods between the measurements the stimulation frequency was 0.5 Hz.
The effect of the compound was calculated as the mean change of maximum driving frequency 5 and 10 minutes after adding the compound. The compound was tested by increasing the concentration to obtain dose-response-curves and to calculate the EC50.
The maximum driving frequency is measured by increasing the stimulation rate. When the interval between two stimuli is shortened, a stimulation rate is reached at which every second stimulation falls into the refractory period of the foregoing contraction and will not be answered with a contraction. Thus, the maximum driving frequency is a measure for the effective refractory period. Compounds which reduce the maximum driving frequency prolong the refractory period.
From the dose-response-curves the following concentrations, which reduce the maximum driving frequency by 50%, were graphically determined: […]

[2] = test system: chloroform-induced ventricular fibrillation in mice; experiment: Antiarrhythmic activity against chloroform-induced ventricular fibrillation in mice; type: in vivo; conditions: Mus musculus, iv, 1 minute before inducing ventricular fibrillation; male mice 20-25 gm; read-out: ED50 (dose which reduces the number of animals which show fibrillations by 50%)
Procedure: 2. Antiarrhythmic activity against chloroform-induced ventricular fibrillation in mice
Upon putting a mouse into a chloroform-saturated atmosphere, the animal is anaesthetized after 40 seconds, the spontaneous respiration stops, and after 20 seconds more, gasping respiration is seen.
During 1 minute after opening the thorax spontaneous ventricular fibrillation can be obtained in nearly all the animals or can be induced in others by touching the heart with tweezers.
Pretreatment with antiarrhythmic compounds reduces the number of animals which show fibrillations in a dose-dependent way. The dose which reduces the number of animals by 50% (ED50) is calculated by means of dose-response-curves, and the standard error is determined [Miller, L.C. and Tainter, M.L., Proc. Soc. Exp. Biol. Med. 57, 261 (1944)].
The tests were performed on male mice having a body weight of 20-25 gm. Each dose was tested on 10 animals.
The compounds were administered intravenously 1 minute before inducing ventricular fibrillation.

Acute toxicity in mice = conditions: mouse, in vivo, observation time: 14 days
Procedure: The acute toxicity of the test compounds was determined in mice (observation time: 14 days) after oral and/or intravenous application. The LD50 was calculated from the percentage of animals which died within the observation time after administration of various doses [see J. Pharmacol. exp. Therap. 96, 99 (1949)].

[3] = intravenous, read-out: LD50 i.v.

Structure (SMILES)	EC50 [1]	ED50 [2]	LD50 at 336 h (Acute toxicity in mice; oral, read-out: LD50 p.o.)	LD50 at 336 h (Acute toxicity in mice; [3])
CN(CCCN1C(=O)c2ccccc2C(C)(C)C1=O)CCCN1C(=O)c2ccccc2C(C)(C)C1=O [A, n,n-bis-[3-(3,4-dihydro-4,4-dimethyl-1,3-dioxo-2-(1H)-isoquinolyl)-propyl]-methylamine]	5.5 µg/mL (≈ 11.2 µM)	1.2 mg/kg		
CC1(C)C(=O)N(CCCNCCCN2C(=O)c3ccccc3C(C)(C)C2=O)C(=O)c2ccccc21 [B, N,N-bis-[3-(3,4-dihydro-4,4-dimethyl-1,3-dioxo-2(1H)-isoquinolyl)propyl]-amine]	8 µg/mL (≈ 16.8 µM)	2.5 mg/kg	123 mg/kg	
CCN(CCCN1C(=O)c2ccccc2C(C)(C)C1=O)CCCN1C(=O)c2ccccc2C(C)(C)C1=O [C, n,n-bis-[3-(3,4-dihydro-4,4-dimethyl-1,3-dioxo-2(1H)-isoquinolyl)-propyl]-ethylamine]	2 µg/mL (≈ 3.97 µM)	0.5 mg/kg		
COc1ccc2c(c1)C(=O)N(CCN(C)CCCN1C(=O)c3ccccc3C(C)(C)C1=O)C(=O)C2(C)C [D, n-[2-(3,4-dihydro-7-methoxy-4,4-dimethyl-1,3-dioxo-2-(1H)-isoquinolyl)-ethyl]-N-[3-(3,4-dihydro-4,4-dimethyl-1,3-dioxo-2(1H)-isoquinolyl)-propyl]-methylamine]	4.2 µg/mL (≈ 8.31 µM)	3.6 mg/kg		
CN(CCN1C(=O)c2ccccc2C(C)(C)C1=O)CCN1C(=O)c2ccccc2C(C)(C)C1=O [F, n,n-bis-[2-(3,4-dihydro-4,4-dimethyl-1,3-dioxo-2(1H)-isoquinolyl)-ethyl]-methylamine]		4.6 mg/kg		
CC1(C)C(=O)N(CCCNCCN2C(=O)c3ccccc3C(C)(C)C2=O)C(=O)c2ccccc21 [G, n-[2-(3,4-dihydro-4,4-dimethyl-1,3-dioxo-2(1H)-isoquinolyl)-ethyl]-N-[3-(3,4-dihydro-4,4-dimethyl-1,3-dioxo-2(1H)-isoquinolyl)-propyl]-amine]	2.7 µg/mL (≈ 5.85 µM)	4.7 mg/kg		
CC1(C)C(=O)N(CCCCNCCCN2C(=O)c3ccccc3C(C)(C)C2=O)C(=O)c2ccccc21 [H, [3-(3,4-dihydro-4,4-dimethyl-1,3-dioxo-2(1H)-isoquinolyl)-propyl]-[4-(3,4-dihydro-4,4-dimethyl-1,3-dioxo-2(1H)-isoquinolyl)-butyl]-amine]	10 µg/mL (≈ 20.4 µM)	3 mg/kg		
CC1(C)C(=O)N(CCNCCN2C(=O)c3ccccc3C(C)(C)C2=O)C(=O)c2ccccc21 [I, bis-[2-(3,4-dihydro-4,4-dimethyl-1,3-dioxo-2(1H)-isoquinolyl)-ethyl]-amine]	2.2 µg/mL (≈ 4.92 µM)	4.7 mg/kg	315 mg/kg	15 mg/kg
CC1(C)C(=O)N(CCCCNCCN2C(=O)c3ccccc3C(C)(C)C2=O)C(=O)c2ccccc21 [J, [2-(3,4-dihydro-4,4-dimethyl-1,3-dioxo-2(1H)-isoquinolyl)-ethyl]-[4-(3,4-dihydro-4,4-dimethyl-1,3-dioxo-2(1H)-isoquinolyl)-butyl]-amine]	1.8 µg/mL (≈ 3.78 µM)	2.8 mg/kg	210 mg/kg	10.5 mg/kg
